Measurements from PMC6556873, “Rapid Covalent-Probe Discovery by Electrophile-Fragment Screening” (Journal of the American Chemical Society, 2019).
Like-named read-outs stand apart in the source and are kept apart here.

Assays:
[1] = in vitro; set-up: species or system HB2, CCD841; conditions: human, hek293 cells
[2] = in vitro; set-up: species or system CCD841, HEK293; conditions: human, hb2 cells, read-out: HB-2 Cells Viability (%)
[3] = in vitro; set-up: species or system HB2, HEK293; conditions: human, ccd841 cells
[4] = biological target: T1, OTUB2 (OTUB2A) (Homo sapiens, UniProt Q96DC9); set-up: Intact protein LC/MS covalent labelling, fragments in pools of five, 200 uM each, 4 °C; conditions: 24 h, 4 °C, pool of five; 200 µM; covalent
T1 construct: full length residues 1-234, E. coli BL21(DE3)-R3, His tag removed by TEV, construct 27312 Da
T1 sequence (Q96DC9 1-234): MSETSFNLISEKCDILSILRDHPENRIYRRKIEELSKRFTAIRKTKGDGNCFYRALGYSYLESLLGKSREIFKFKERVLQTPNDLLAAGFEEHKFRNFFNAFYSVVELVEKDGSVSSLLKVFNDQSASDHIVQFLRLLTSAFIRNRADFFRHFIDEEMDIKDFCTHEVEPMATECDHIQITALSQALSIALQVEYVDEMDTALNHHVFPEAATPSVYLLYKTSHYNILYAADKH

[5] = biological target: T2, BSA (Bos taurus, UniProt P02769); set-up: Intact protein LC/MS covalent labelling, fragments in pools of five, 200 uM each, 4 °C; conditions: 24 h, 4 °C, pool of five; 200 µM; covalent
T2 construct: gene ALB

[6] = biological target: T3, NUDT7 (Homo sapiens, UniProt P0C024); set-up: Intact protein LC/MS covalent labelling, fragments in pools of five, 200 uM each, 4 °C; conditions: 24 h, 4 °C, pool of five; 200 µM; covalent
T3 construct: residues 14-235, E. coli, pNIC28-Bsa4, N-terminal His6 tag removed by TEV, construct 26672 Da

[7] = biological target: T4, PCAF (Homo sapiens, UniProt Q92831); set-up: Intact protein LC/MS covalent labelling, fragments in pools of five, 200 uM each, 4 °C; conditions: 24 h, 4 °C, pool of five; 200 µM; covalent
T4 construct: gene KAT2B
T4 sequence (Q92831 whole entry, the tested form may be a part): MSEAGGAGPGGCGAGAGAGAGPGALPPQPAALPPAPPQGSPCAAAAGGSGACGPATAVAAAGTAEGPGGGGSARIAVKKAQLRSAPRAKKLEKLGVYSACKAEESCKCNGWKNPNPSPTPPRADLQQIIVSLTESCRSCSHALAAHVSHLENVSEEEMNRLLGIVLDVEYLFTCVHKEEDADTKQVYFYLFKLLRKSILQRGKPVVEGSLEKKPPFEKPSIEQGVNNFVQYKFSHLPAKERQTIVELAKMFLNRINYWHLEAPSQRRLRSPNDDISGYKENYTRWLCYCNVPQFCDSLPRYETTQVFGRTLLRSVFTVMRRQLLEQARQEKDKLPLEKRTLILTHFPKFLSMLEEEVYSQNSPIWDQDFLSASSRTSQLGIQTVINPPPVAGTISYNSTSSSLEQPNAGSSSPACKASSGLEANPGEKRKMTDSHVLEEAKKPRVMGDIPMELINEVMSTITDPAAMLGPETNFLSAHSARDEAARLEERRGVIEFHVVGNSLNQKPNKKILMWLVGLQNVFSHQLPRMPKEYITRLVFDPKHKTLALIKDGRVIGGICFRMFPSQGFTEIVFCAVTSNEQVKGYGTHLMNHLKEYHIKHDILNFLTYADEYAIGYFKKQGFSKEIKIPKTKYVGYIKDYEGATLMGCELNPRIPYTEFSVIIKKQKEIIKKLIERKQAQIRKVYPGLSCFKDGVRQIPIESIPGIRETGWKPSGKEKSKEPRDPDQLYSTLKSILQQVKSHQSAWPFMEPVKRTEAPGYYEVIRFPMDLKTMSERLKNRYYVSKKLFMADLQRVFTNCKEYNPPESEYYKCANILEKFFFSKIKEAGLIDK

T3 sequence (P0C024 14-235): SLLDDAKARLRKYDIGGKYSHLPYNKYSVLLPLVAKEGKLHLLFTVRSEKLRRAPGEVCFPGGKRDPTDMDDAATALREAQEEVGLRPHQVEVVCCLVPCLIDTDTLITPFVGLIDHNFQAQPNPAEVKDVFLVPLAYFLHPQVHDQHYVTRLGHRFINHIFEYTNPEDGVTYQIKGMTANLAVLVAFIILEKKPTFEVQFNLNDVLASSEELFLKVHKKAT
T2 sequence (P02769 whole entry, the tested form may be a part): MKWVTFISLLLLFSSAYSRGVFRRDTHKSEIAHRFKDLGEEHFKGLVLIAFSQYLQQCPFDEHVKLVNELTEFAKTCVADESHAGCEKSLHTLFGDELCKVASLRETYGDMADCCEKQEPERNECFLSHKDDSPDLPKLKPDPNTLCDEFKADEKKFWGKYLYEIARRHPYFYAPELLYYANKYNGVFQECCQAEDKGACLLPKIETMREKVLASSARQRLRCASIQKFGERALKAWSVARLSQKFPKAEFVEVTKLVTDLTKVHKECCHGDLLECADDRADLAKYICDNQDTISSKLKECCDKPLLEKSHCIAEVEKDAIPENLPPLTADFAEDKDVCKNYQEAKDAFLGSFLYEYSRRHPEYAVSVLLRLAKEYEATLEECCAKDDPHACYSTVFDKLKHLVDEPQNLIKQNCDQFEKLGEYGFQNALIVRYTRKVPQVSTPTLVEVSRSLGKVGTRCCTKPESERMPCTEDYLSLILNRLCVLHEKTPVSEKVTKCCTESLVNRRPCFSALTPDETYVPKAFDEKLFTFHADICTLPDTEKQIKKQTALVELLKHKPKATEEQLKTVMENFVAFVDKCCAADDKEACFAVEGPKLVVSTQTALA

Row | OTUB2 [4] | BSA [5] | NUDT7 [6] | PCAF [7] | Structure (SMILES) | viability at 48 h, 10 µM [1] | viability at 48 h, 10 µM [2] | viability at 48 h, 10 µM [3]
1 | 0.26 | 0 | 0.36 | 0 | O=C(CCl)Nc1cc2c(cc1Cl)OCCCO2 [PCM-0102331] | 10.3% | 17.2% | 57.1%
2 | 0 | 0 | 0 | 0 | CC1CCCC(NC(=O)NC(=O)CCl)C1C (stereo not drawn) [PCM-0102332] | 52.5% | 48.7% | 71%
3 | 0.53 | 0 | 0.29 | 0 | O=C(CCl)NC(=O)Nc1ccc2c(c1)OCO2 [PCM-0102333] | 82.6% | 83.2% | 98.4%
4 | 0.25 | 0 | 0 | 0 | CC(NC(=O)CCl)c1ccc(Cl)cc1 (stereo not drawn) [PCM-0102334] | 68.5% | 78.4% | 67.8%
5 | 0.3 | 0 | 0.06 | 0 | CS(=O)(=O)c1ccc(NC(=O)CCl)cc1 [PCM-0102335] | 2.7% | 37.1% | 46%
6 | 0 | 0 | 0 | 0 | O=C(CCl)N1CCNC1=O [PCM-0102338] | 86.5% | 99.5% | 98.6%
7 | 0 | 0 | 0 | 0 | N#CC(c1ccc(F)cc1)N1CCN(C(=O)CCl)CC1 (stereo not drawn) [PCM-0102341] | 8.6% | 28.6% | 60.3%
8 | 0.57 | 0 | 0.08 | 0 | CC(NC(=O)CCl)c1ccc2c(c1)OCCO2 (stereo not drawn) [PCM-0102342] | 73.1% | 93.8% | 87.2%
9 | 0 | 0 | 0.12 | 0 | O=C(CCl)N1CCN(S(=O)(=O)c2ccc(F)c(Cl)c2)CC1 [PCM-0102343] | 2.6% | 1.4% | 14.3%
10 | 0 | 0 | 0.34 | 0 | CN(Cc1ccc(Cl)cc1)C(=O)CCl [PCM-0102344] | 2.1% | 4.3% | 24%
11 | 0 | 0 | 0.1 | 0 | CN(C)C(=O)c1cccc(NC(=O)CCl)c1 [PCM-0102345] | 13.8% | 52.9% | 61.4%
12 | 0 | 0 | 0 | 0 | Cl.O=C(CCl)N1CCN(CC(=O)N2CCCC2)CC1 [PCM-0102346] | 99% | 98.1% | 80.8%
13 | 0 | 0 | 0 | 0 | C=CC(=O)Nc1ccc2c(c1)OCO2 [PCM-0102347] | 79.7% | 109% | 106%
14 | 0 | 0 | 0 | 0 | CC(C)(C)c1cc(NC(=O)CCl)on1 [PCM-0102348] | 60.9% | 32.8% | 59.9%
15 | 0 | 0 | 0.59 | 0 | CN(Cc1ccc(Cl)c(Cl)c1)C(=O)CCl [PCM-0102349] | 1.4% | 1.7% | 3.9%
16 | 0.47 | 0 | 0.31 | 0 | CC(NC(=O)CCl)c1ccc2ccccc2c1 (stereo not drawn) [PCM-0102350] | 58.5% | 66% | 70.6%

Row | OTUB2 [4] | BSA [5] | NUDT7 [6] | PCAF [7] | Structure (SMILES) | viability at 48 h, 10 µM [1] | viability at 48 h, 10 µM [2] | viability at 48 h, 10 µM [3]
17 | 0 | 0 | 0 | 0 | Cc1noc(NC(=O)CCl)n1 [PCM-0102351] | 119% | 103% | 94.9%
18 | 0 | 0 | 0 | 0 | Cc1cc(C)c(NC(=O)CCl)c(C)c1 [PCM-0102352] | 72.9% | 84.2% | 78.5%
19 | 0.06 | 0 | 0.19 | 0 | Cc1ccc(C)c(S(=O)(=O)N2CCN(C(=O)CCl)CC2)c1 [PCM-0102353] | 3.2% | 2.1% | 37.7%
20 | 0 | 0 | 0 | 0 | Cc1ccc(Cl)cc1NC(=O)CCl [PCM-0102354] | 9.3% | 16.3% | 44.6%
21 | 0.05 | 0 | 0 | 0 | O=C(CCl)NCC1CCCO1 (stereo not drawn) [PCM-0102356] | 102% | 91.4% | 104%
22 | 0 | 0 | 0 | 0 | Cl.O=C(CCl)N1CCN(c2ccc(O)cc2)CC1 [PCM-0102357] | 12.7% | 31% | 76.7%
23 | 0 | 0 | 0 | 0 | Cc1cccc(C(C)C)c1NC(=O)CCl [PCM-0102358] | 76.5% | 102% | 89.3%
24 | 0.12 | 0 | 0 | 0 | O=C(CCl)NC(=O)NC12CC3CC(CC(C3)C1)C2 [PCM-0102360] | 46.7% | 3.1% | 73.7%
25 | 0 | 0 | 0 | 0 | O=C(CCl)N1CCN(S(=O)(=O)c2ccc(F)c(F)c2)CC1 [PCM-0102361] | 5.4% | 2.5% | 48.1%
26 | 0 | 0 | 0 | 0 | O=C1CN(C(=O)CCl)c2ccccc2N1 [PCM-0102362] | 61.4% | 79.8% | 92.6%
27 | 0 | 0.1 | 0.28 | 0 | O=C1CC(C(F)(F)F)N(C(=O)CCl)c2ccccc2N1 (stereo not drawn) [PCM-0102363] | 40.4% | 59.3% | 74.6%
28 | 0 | 0 | 0.09 | 0 | O=C(CCl)Nc1cccc(F)c1 [PCM-0102364] | 5.9% | 25% | 45.7%
29 | 0 | 0 | 0.12 | 0 | COC(=O)c1sccc1NC(=O)CCl [PCM-0102367] | 54% | 75% | 85.5%
30 | 0 | 0 | 0 | 0 | CCc1ccccc1NC(=O)CCl [PCM-0102369] | 56.7% | 78.3% | 76.1%
31 | 0 | 0 | 0 | 0 | O=C(CCl)NC(=O)Nc1ccccc1F [PCM-0102376] | 67.8% | 63.5% | 80.5%
32 | 0 | 0 | 0 | 0 | O=C(CCl)N1CCCCCCC1 [PCM-0102377] | 43.5% | 36.7% | 82.1%

Row | Structure (SMILES) | OTUB2 [4] | BSA [5] | NUDT7 [6] | PCAF [7] | viability at 48 h, 10 µM [1] | viability at 48 h, 10 µM [2] | viability at 48 h, 10 µM [3]
33 | CN(C(=O)CCl)C1(c2ccccc2Cl)CCCCC1=O (stereo not drawn) [PCM-0102359] | 0 | 0 | 0 | 0 | 87.5% | 85.2% | 104%
